Source: ChEMBL document CHEMBL4622860, “The relationship between the structure and toxicity of aminoglycoside antibiotics” (Bioorg Med Chem Lett, 2020)

Key:
[1] = Nephrotoxicity in human patients assessed as proportion of patients with higher serum creatinine level; format: toxicity; settings: in vivo
[2] = Ototoxicity against C57BL/6 mouse cochlea hair cells assessed as reduction in cell viability at 0.1 mM incubated for 23 hrs by FITC-phalloidin staining-based assay; format: toxicity; settings: read-out: INH

Row | Structure (SMILES) | Activity [1] [%] | cytotoxicity at 23 h, 100 µM [2] [%]
1 | CN[C@@H]1[C@@H](O)[C@@H](O[C@@H]2[C@@H](O)[C@H](O[C@H]3OC(CNCCO)=CC[C@H]3N)[C@@H](N)C[C@H]2NC(=O)[C@@H](O)CCN)OC[C@]1(C)O [PLAZOMICIN] | 7 | –
2 | NC[C@@H]1O[C@H](O[C@H]2[C@@H](O)[C@H](O[C@@H]3[C@@H](O)[C@H](N)C[C@H](N)[C@H]3O[C@H]3O[C@H](CO)[C@@H](O)[C@H](O)[C@H]3N)O[C@@H]2CO)[C@H](N)[C@@H](O)[C@@H]1O [PAROMOMYCIN] | – | 4
3 | NC[C@@H]1O[C@H](O[C@H]2[C@@H](O)[C@H](O[C@@H]3[C@@H](O)[C@H](N)C[C@H](N)[C@H]3O[C@H]3O[C@H](CN)[C@@H](O)[C@H](O)[C@H]3N)O[C@@H]2CO)[C@H](N)[C@@H](O)[C@@H]1O [FRAMYCETIN] | – | 20
